Laboratory results: US8147801B2, “Methods of using alpha-methylglucoside (AMG) as an indicator for glucose absorption and excretion” (Janssen Pharmaceutica, N.V., priority 2009, dated 2012)

Assays:
[1] = tested on: Male Sprague-Dawley (SD) rats; experiment: Oral AMG test in rats: AMG measured by NMR in GI tract, plasma and urine after SGLT inhibitor dosing; type: in vivo, rat; settings: for AMG content retained in the GI system / amount of AMG detected in plasma / amount of AMG detected in the urine: rats, compound 0.3 or 3.0 mg/kg oral, AMG 2 g/kg oral 1 h later; for AMG content retained in the GI system: FIG. 1A; for amount of AMG detected in plasma: FIG. 1B; for amount of AMG detected in the urine: FIG. 1C
Procedure: Male Sprague-Dawley (SD) rats were dosed by oral gavage with either vehicle, 0.5% methylcellulose (methocel) in sterile water, or one of the SGLT inhibitors (Compound 1 and Compound 2) at 0.3 or 3.0 mg/kg. Compounds were administered as a suspension in 0.5% methylcellulose and sterile water. One hour after dosing the animals with the compounds, AMG was administrated orally via gavage (2 g/kg). AMG was dissolved in sterile water. Rats were sacrificed 120 or 240 minutes after AMG administration. Urine and plasma samples were collected and the entire gastrointestinal tract was removed and placed into saline. Subsequently, a GI lysate was made. Aliquots were taken from the samples of plasma, urine and the GI lysate and were extracted with acetonitrile to precipitate protein. […] The aqueous portion was dried down and re-suspended in deuterated water to a volume of 0.5 ml.
Proton NMR spectra were acquired on a Bruker DMX 600 MHz NMR spectrometer (Bruker Biospin Corporation, Billerica, Mass.) with the probe temperature maintained at 32° C. The mildly elevated temperature was used to enhance the chemical shift separation between the solvent peak (the residual water in the sample) and the anomeric proton of AMG (a doublet at 4.80 ppm) which was used for quantification. The solvent peak was saturated using very low power irradiation (a field strength of about 4 Hz) during the pre-pulse delay followed by a 30° pulse to acquire the signal. The pre-pulse delay was 3.0 s and the acquisition time was 2.1 s. The sweep width was 13 ppm using 32 k complex points. Before fourier transformation the data was apodized with 0.5 Hz exponential linebroadening. The amount of AMG present in the sample was determined relative to an internal reference, DSS (2,2-dimethyl-2-silapentane-d6-sulfonic acid, sodim salt) at 0.00 ppm.

[2] = molecular target: T1, SGLT1 (Homo sapiens, UniProt P13866); settings: literature value (Kanai et al. 1994; US 2008/0234367); cited from earlier work
T1 sequence (P13866 1-664): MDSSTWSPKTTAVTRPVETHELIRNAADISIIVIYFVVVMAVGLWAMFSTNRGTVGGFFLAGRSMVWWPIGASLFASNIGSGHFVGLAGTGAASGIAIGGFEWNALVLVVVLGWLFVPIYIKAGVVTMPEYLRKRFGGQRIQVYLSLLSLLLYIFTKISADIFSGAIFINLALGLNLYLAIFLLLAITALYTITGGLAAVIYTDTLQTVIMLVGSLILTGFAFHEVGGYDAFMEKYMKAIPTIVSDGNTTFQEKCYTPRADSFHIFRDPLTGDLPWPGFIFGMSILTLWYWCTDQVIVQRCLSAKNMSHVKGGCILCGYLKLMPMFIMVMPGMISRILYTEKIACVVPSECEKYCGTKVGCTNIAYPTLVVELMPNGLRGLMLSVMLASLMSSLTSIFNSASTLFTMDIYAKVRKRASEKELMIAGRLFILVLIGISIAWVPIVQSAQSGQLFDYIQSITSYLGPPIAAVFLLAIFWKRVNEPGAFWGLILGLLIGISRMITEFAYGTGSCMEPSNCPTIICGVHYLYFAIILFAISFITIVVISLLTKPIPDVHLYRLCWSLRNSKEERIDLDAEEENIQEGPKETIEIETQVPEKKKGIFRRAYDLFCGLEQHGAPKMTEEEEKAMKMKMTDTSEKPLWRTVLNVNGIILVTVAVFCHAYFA

[3] = molecular target: T2, SGLT2 (Homo sapiens, UniProt P31639); settings: literature value (Kanai et al. 1994; US 2008/0234367); cited from earlier work
T2 sequence (P31639 1-672): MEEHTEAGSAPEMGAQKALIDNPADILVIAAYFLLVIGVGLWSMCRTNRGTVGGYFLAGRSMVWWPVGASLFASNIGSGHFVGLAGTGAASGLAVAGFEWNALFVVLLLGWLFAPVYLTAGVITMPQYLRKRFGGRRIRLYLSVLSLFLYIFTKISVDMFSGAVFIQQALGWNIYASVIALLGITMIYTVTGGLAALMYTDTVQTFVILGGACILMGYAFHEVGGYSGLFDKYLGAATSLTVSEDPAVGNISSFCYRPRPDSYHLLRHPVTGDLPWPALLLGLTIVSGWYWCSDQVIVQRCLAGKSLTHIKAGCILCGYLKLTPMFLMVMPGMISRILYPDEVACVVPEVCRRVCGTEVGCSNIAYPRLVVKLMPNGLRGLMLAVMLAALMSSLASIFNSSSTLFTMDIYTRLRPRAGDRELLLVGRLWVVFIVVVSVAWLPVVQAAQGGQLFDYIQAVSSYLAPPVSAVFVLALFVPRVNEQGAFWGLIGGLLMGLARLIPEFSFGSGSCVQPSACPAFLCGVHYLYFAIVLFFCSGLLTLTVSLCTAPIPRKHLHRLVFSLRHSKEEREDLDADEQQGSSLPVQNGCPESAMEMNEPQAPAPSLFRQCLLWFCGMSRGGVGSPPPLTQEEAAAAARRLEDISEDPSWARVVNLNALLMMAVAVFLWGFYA

[4] = molecular target: T1, SGLT1; experiment: Cell-based 14C-AMG uptake inhibition assay, CHOK1 cells expressing human SGLT1; parameters: expressed in transfected cells; settings: CHOK1 cells stably expressing human SGLT1, 0.5 mM 14C-AMG, 30 min uptake; read-out: hSGLT1 (IC50, nM) [A]
Procedure: (§1) Inhibition of SGLT activity with Compound 1 and Compound 2 was assessed in CHOK1 cells stably expressing either human SGLT1 or human SGLT2. Compound 1 and Compound 2, are described in U.S. Patent Application Nos. 2005/0233988 and 2008/0027122, the contents of which are incorporated by reference in their entirety.
CHOK1 cells expressing human SGLT2 or human SGLT1 were seeded in 24-well plates at a density of approximately 400,000 cells/well in F-12 nutrient mixture (Ham's F-12) containing 10% fetal bovine serum, 400 ug/ml Geneticin, 50 units/ml sodium penicillin G (Gibco-BRL) and 50 ug/ml streptomycin sulfate. Cells were maintained in culture for 2 days at 37° C. in a humidified atmosphere containing 5% CO2. On the day of the assay, Compound 1 and Compound 2 were dissolved in DMSO and then diluted in assay buffer. The final concentration of DMSO was 0.5%. Assay buffer contained 137 mM NaCl, 5 mM KCl, 1 mM CaCl2, 1 mM MgCl2, 50 mM Hepes, and 20 mM Tris, pH 7.4. To start the assay, cells were washed once with the assay buffer and then incubated with 250 ul of the assay buffer containing Compound 1 or Compound 2 for 10 min at 37° C. […] Cells were then solubilized with 0.3 N NaOH and aliquots were taken for determination of radioactivity by a liquid scintillation counter. […] Specific uptake was normalized for the protein concentrations measured by the method of Bradford. […]

[5] = molecular target: T2, SGLT2; experiment: Cell-based 14C-AMG uptake inhibition assay, CHOK1 cells expressing human SGLT2; parameters: expressed in transfected cells; settings: for IC50: CHOK1 cells stably expressing human SGLT2, 0.5 mM 14C-AMG, 30 min uptake, read-out: hSGLT2 (IC50, nM) [B]; for [A]/[B] (fold): ratio hSGLT1 IC50 / hSGLT2 IC50
Procedure: as §1
CHOK1 cells expressing human SGLT2 or human SGLT1 were seeded in 24-well plates at a density of approximately 400,000 cells/well in F-12 nutrient mixture (Ham's F-12) containing 10% fetal bovine serum, 400 ug/ml Geneticin, 50 units/ml sodium penicillin G (Gibco-BRL) and 50 ug/ml streptomycin sulfate. Cells were maintained in culture for 2 days at 37° C. in a humidified atmosphere containing 5% CO2. On the day of the assay, Compound 1 and Compound 2 were dissolved in DMSO and then diluted in assay buffer. The final concentration of DMSO was 0.5%. Assay buffer contained 137 mM NaCl, 5 mM KCl, 1 mM CaCl2, 1 mM MgCl2, 50 mM Hepes, and 20 mM Tris, pH 7.4. To start the assay, cells were washed once with the assay buffer and then incubated with 250 ul of the assay buffer containing Compound 1 or Compound 2 for 10 min at 37° C. The transport reaction was initiated by addition of 50 ul ^14C-AMG solution (final concentration, 0.5 mM ^14C-AMG). After incubation for 30 minutes at 37° C., the uptake was stopped by aspiration of the incubation mixture and the cells were washed three times with ice-cold PBS. Cells were then solubilized with 0.3 N NaOH and aliquots were taken for determination of radioactivity by a liquid scintillation counter. Nonspecific AMG uptake was defined as that which occurred in the presence of 100 uM of phlorizin, a specific inhibitor of sodium-dependent glucose cotransporter. Specific uptake was normalized for the protein concentrations measured by the method of Bradford. The 50% inhibitory concentration (IC50) values were calculated from dose-response curves by least square method.

[6] = tested on: facilitated glucose transporters (GLUTs); settings: cited from earlier work
[7] = tested on: rodent models of diabetes and one canine diabetes model; settings: cited from earlier work
[8] = rodent models of diabetes and one canine diabetes model

Structure (SMILES)	AMG content retained in the GI system [1]	amount of AMG detected in plasma [1]	amount of AMG detected in the urine [1]	IC50 [4] [nM]	IC50 [5] [nM]	[A]/[B] (fold) [5] [fold]	other results
CO[C@H]1O[C@H](CO)[C@@H](O)[C@H](O)[C@H]1O [AMG, Methyl-alpha-D-glucopyranoside]	–	–	–	–	–	–	absorption of oral AMG in vehicle treated rats ([1]; AMG 2 g/kg oral gavage, vehicle treated rats, GI system, plasma and urine samples): absorbed from the GI system; Km [2]: 400 µM; Km [3]: 1600 µM
CCc1ccc(Cc2cn([C@@H]3O[C@H](CO)[C@@H](O)[C@H](O)[C@H]3O)c3ccccc23)cc1 [Compound 1]	did not cause a significant retention	dose-dependent decreases	increase in the amount of AMG detected in the urine	1700	8.4	202	–
OC[C@@H]1O[C@H](n2cc(Cc3ccc(C4CC4)cc3)c3c(F)cccc32)[C@@H](O)[C@H](O)[C@H]1O [Compound 2]	markedly increased at the higher dose	dose-dependent decreases	increased amount of AMG detected in the urine	270	1.9	142	–
O=C(CCc1ccc(O)cc1)c1c(O)cc(O)cc1O [phloretin]	–	–	–	–	–	–	inhibition of facilitated glucose transporters (GLUTs) [6]: potent inhibitor
O=C(CCc1ccc(O)cc1)c1c(O)cc(O)cc1O[C@@H]1O[C@H](CO)[C@@H](O)[C@H](O)[C@H]1O [phlorizin]	–	–	–	–	–	–	fasting and fed plasma glucose levels [7, 8]: lowered fasting and fed plasma glucose levels; glucose excretion [7, 8]: promoted glucose excretion; adverse effects on plasma ion balance, renal function or renal morphology ([7]; treatment for as long as two weeks): No adverse effects
